Test results published in US11786503B2, “Pharmaceutical compositions and methods for countering chemotherapy induced cardiotoxicity” (Auransa Inc., priority 2016, dated 2023).
Like-named read-outs stand apart in the source and are kept apart here.

Legend:
[1] = test system: Human iPSC-derived cardiomyocytes; assay: doxorubicin-induced mitochondrial toxicity, TMRM signal, 2 days (Example 2); assay type: cell-based; settings: co-treated with 1.25 μM doxorubicin and 79 μM myricetin, compared to 1.25 μM doxorubicin alone
Experimental: Following treatment, the samples were incubated with a tetramethylrhodamine methyl ester (TMRM) dye to indicate mitochondrial health, and Hoechst 33342 to identify cell nuclei. Cells were imaged using the INCell Analyzer2200.

[2] = test system: Human iPSC-derived cardiomyocytes; assay: contractility, beat rate by Pulse video, 3 days (Example 3); assay type: cell-based; settings: 72 hours; for beat rate: mock-treated 33.33
[3] = test system: Cardiomyocytes (human iPSC-derived); assay: doxorubicin-induced apoptosis, CellEvent dye, 3 days (Example 4); assay type: cell-based; settings: Cardiomyocyte, 72 h, co-treated with 1 μM of doxorubicin, read-out: IC50 for protective effects against apoptosis
Experimental: Cardiomyocytes were prepared as described above. […] Following treatment, the samples were incubated with a CellEvent dye to indicate apoptosis-positive cells, and a second dye to identify cell nuclei.

[4] = test system: Human iPSC-derived cardiomyocytes; assay: cells; assay type: cell-based; settings: Cardiomyocyte, 0.5 μM of Doxorubicin, 72 hours, read-out: EC50 for rescue from DOX-induced cell death
Experimental: To measure the rescue rates from the DOX-induced cell death in cardiomyocytes, the protective effect of myricetin was directly compared with that of dexraxozane (DEX; standard of care). Human iPSC-derived cardiomyocytes were treated with 0.5 μM of Doxorubicin and increasing concentrations of myricetin (MYR, circle) or dexraxozane (DEX, square). […] Cells were imaged using INCell Analyzer2200 (GE). […] (n=3).
Next, the ability of MYR to confer cardioprotection was directly compared with that of DHM as these two compounds display distinctive property in their structures and TOPOI inhibition activity. […] Human iPSC-derived cardiomyocytes were treated with 0.5 μM of Doxorubicin and increasing concentrations of myricetin (MYR, circle) or dihydromyricetin (DHM, triangle).

[5] = test system: Human iPSC-derived cardiomyocytes; assay: DOX-induced contractility dysfunction, Pulse video, 48 hours (Example 7); assay type: cell-based
[6] = test system: Human iPSC-derived cardiomyocytes; assay: DOX-induced DNA double strand break, γH2AX immunostaining; assay type: cell-based; settings: 48 hours
[7] = test system: Human iPSC-derived cardiomyocytes; assay: DOX-induced sarcomere disruption, Cardiac Troponin T immunostaining (Example 8); assay type: cell-based; settings: DOX (0.5 μM) plus MYR (100 μM), 72 hours
Experimental: DOX-induced cell death is often manifested by severity of structural disruptions of cardiomyocyte organization (e.g., sarcomere). To assess the protective effect of MYR against DOX-induced sarcomere disruption, human iPSC-derived cardiomyocytes were treated with DMSO, DOX (0.5 μM), or DOX plus MYR (100 μM). After 72 hours of treatment, cells were immunostained with antibody against Cardiac Troponin T (Abcam) to show sarcomeric organization in of the heart cells.

TOPOIIβ mRNA expression = TOPOIIβ mRNA expression in cardiomyocytes; assay type: cell-based; settings: for TOPOIIβ mRNA expression: compound alone, DOX at 24 and 48 hours
TOPOIIα expression = assay: TOPOIIα mRNA expression in cardiomyocytes; assay type: cell-based
[8] = test system: Doxorubicin treated human iPSC-derived cardiomyocytes; assay: iPSC-CM protection by myricetin analogs (Table 1); assay type: cell-based; settings: for EC50 / Emax: Homo sapiens; for Emax: read-out: iPSC-CM protection Max Effect (%)
[9] = test system: Human stem cell derived cardiomyocytes; assay: sunitinib-induced cell death (Example 14); assay type: cell-based; settings: sunitinib (10 μM) plus MYR (1 to 100 μM), 72 hours
[10] = test system: sorafenib treated cardiomyocytes; assay: sorafenib-induced contractile dysfunction (Example 14); assay type: cell-based, human; settings: 5 μM sorafenib treated cardiomyocytes
cardiomyocytes [11] = assay: bortezomib-induced cardiotoxicity (Example 14); assay type: cell-based, human; settings: 100 μM myricetin
C57BL/16 mice = assay: acute anthracycline-induced cardiotoxicity model, echocardiography (Example 16); assay type: in vivo
From the text: An acute anthracycline-induced cardiotoxicity model was established in 9-10 week old C57BL/16 mice obtained from The Jackson Laboratory. […] General health of the animals was monitored on a daily basis throughout the course of the study. […] Left ventricular (LV) M-mode images were obtained in the two-dimensional short axis view close to the papillary muscles. Tracings of endocardial tissue during systole and diastole were made off line.

[12] = test system: human induced pluripotent stem cell-derived cardiomyocytes (iPSC-CM)
TOPOIIα = target: T1, TOPOIIα (Homo sapiens, UniProt P11388); assay: kDNA decatenation assay, TOPOIIα; assay type: biochemical;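 note: kDNA incubated with one unit of TOPOIIα at 37 °C for 30 min, decatenated product resolved on 1% agarose gel, inhibition from relative band intensity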
T1 construct: purchased Inspiralis
T1 sequence (P11388 whole entry): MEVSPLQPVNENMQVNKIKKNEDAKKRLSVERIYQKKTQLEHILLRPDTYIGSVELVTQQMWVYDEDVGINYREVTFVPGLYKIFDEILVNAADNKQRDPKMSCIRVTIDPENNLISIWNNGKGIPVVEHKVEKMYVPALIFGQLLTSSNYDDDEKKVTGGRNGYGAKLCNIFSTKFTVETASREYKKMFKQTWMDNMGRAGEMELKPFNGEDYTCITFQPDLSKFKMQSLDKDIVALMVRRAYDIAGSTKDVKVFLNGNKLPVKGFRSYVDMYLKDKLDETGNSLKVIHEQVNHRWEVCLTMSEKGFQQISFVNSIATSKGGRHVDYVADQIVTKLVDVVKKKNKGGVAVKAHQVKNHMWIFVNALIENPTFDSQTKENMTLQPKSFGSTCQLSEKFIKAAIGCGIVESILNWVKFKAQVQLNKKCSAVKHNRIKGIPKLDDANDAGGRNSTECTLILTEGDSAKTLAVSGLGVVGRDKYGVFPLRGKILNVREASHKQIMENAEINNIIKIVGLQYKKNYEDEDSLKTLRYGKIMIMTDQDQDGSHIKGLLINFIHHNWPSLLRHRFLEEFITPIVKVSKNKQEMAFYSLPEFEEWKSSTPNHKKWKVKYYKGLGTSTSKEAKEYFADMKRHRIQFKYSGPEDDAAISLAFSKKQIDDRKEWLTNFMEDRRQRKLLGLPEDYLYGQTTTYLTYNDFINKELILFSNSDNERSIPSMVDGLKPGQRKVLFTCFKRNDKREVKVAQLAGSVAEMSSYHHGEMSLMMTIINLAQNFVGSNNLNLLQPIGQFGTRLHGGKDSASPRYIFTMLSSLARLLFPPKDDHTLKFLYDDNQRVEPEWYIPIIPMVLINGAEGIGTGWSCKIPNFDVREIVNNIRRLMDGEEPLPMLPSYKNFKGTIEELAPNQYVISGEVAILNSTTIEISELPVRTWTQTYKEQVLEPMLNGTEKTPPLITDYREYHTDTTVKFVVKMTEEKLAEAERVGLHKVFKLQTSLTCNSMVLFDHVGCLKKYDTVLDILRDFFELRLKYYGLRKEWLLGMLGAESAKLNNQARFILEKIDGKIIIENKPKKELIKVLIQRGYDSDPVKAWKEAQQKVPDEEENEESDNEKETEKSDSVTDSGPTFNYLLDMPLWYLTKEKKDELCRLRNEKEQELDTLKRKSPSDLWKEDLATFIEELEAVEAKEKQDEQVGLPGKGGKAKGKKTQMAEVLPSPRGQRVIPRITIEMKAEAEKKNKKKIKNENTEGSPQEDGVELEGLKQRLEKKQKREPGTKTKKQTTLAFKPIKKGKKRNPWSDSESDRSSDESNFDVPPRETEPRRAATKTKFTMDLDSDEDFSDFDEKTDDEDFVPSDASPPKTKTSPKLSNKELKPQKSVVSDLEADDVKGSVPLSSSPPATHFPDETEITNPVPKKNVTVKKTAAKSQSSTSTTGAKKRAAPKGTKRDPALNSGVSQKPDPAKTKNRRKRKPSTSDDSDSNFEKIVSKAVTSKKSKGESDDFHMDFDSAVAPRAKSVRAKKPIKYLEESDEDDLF

TOPOIIβ = target: T2, TOPOIIβ (Homo sapiens, UniProt Q02880); assay: kDNA decatenation assay, TOPOIIβ; assay type: biochemical;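 note: kinetoplast DNA incubated with one unit of TOPOIIβ at 37 °C for 30 min, decatenated product resolved on 1% agarose gel, inhibition scored from relative band intensity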
T2 construct: purchased Inspiralis
T2 sequence (Q02880 whole entry): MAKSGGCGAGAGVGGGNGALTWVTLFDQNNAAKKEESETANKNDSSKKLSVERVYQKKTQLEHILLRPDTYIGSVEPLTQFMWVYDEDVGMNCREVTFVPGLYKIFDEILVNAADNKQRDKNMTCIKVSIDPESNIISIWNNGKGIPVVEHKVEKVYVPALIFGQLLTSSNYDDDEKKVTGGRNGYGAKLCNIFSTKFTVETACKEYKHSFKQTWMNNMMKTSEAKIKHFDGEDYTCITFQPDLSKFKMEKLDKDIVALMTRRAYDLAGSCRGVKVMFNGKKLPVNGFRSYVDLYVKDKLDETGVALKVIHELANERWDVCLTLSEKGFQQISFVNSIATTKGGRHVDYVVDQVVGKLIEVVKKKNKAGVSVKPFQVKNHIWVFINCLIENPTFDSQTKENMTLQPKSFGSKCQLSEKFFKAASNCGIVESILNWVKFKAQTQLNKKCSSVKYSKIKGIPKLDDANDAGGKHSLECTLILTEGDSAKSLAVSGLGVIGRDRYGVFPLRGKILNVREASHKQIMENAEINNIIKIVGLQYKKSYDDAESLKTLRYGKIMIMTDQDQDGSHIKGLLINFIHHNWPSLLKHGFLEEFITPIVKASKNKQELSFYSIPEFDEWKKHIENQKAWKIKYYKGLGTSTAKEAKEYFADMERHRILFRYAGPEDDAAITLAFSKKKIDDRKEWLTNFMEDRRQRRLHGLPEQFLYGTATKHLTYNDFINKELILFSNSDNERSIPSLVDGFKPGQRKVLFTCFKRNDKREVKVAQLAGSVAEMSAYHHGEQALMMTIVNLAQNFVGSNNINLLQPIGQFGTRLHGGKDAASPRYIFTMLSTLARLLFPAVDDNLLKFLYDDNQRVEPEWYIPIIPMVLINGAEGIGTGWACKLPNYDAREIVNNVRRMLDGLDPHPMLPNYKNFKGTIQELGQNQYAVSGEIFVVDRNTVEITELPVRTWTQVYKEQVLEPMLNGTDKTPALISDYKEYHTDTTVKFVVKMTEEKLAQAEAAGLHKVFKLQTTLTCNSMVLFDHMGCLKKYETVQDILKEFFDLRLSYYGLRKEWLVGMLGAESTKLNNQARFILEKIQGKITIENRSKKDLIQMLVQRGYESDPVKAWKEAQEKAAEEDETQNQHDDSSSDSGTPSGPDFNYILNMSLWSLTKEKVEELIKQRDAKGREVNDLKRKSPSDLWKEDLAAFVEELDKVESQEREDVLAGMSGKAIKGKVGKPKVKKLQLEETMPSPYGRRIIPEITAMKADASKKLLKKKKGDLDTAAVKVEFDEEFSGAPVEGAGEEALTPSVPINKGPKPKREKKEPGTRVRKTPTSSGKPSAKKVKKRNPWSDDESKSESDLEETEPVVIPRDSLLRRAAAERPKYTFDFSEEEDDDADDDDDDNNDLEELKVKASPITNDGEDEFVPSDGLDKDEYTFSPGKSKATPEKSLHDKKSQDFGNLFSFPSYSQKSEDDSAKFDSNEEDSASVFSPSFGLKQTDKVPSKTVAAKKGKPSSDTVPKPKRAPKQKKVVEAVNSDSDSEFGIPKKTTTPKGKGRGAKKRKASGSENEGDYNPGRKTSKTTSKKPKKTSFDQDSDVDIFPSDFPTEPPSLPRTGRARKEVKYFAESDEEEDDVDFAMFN

[13] = test system: cardiomyocytes differentiated from induced pluripotent stem cells; assay: doxorubicin-induced mitochondrial toxicity, TMRM-negative cells, 48 hours (Example 17); assay type: cell-based, human; settings: 1 μM doxorubicin, KAE 17 μM, AMB 0.76 μM, MES 10 μM, NAC 50 μM, Dex 160 μM, VIT 115 μM
Experimental: Following treatment, the samples were incubated with a tetramethylrhodamine methyl ester (TMRM) dye to indicate mitochondrial health, and a second dye to identify cell nuclei.

A549 cells = assay: doxorubicin-mediated death of lung cancer cells, CellTiter-Glo (Example 22); assay type: cell-based; settings: co-treated with increasing concentrations of doxorubicin, 72 hours
Experimental: A549 cells (lung cancer) were cultured for 1 day before performing experiments. […] XLFit was used for curve fitting.

[14] = test system: cardiomyocytes differentiated from induced pluripotent stem cells; assay: long term toxicity on electrophysiology, active electrodes (Example 24); assay type: cell-based; settings: various concentrations, at least 5 days
Experimental: Samples were either mock-treated with 0.1% DMSO, or treated with various concentrations of the indicated drug. Following treatment, the percentage of active electrodes in each sample was measured for at least 5 days. Percentage of active electrodes was quantified and graphed in a time course.

MDA-MB-231 cells [15] = settings: co-treated with increasing concentrations of doxorubicin, 72 hours
cardiomyocytes [16] = assay: cytotoxicity of myricetin analogs to cardiomyocytes (Table 1, Toxicity)
[17] = test system: cardiomyocytes differentiated from induced pluripotent stem cells; assay: long-term mitochondrial health, TMRM, 7 days (Example 19); assay type: cell-based, human
[18] = test system: cardiomyocytes differentiated from induced pluripotent stem cells; assay: electrophysiological activity with doxorubicin, active electrodes (Example 20); assay type: cell-based, human; settings: for average number of active electrodes: 30 hours
Experimental: Samples were either mock-treated with 0.1% DMSO, treated with 1 μM doxorubicin, or co-treated with 1 μM doxorubicin and various concentrations of vitexin (e.g., 11.6 μM, 37 μM, or 116 μM). Following treatment, the percentage of active electrodes in each sample was measured for 72 hours. Percentage of active electrodes was quantified and graphed in a time course (FIG. 28A). The average number of active electrodes per well was quantified and graphed at 30 hours after the treatment (FIG. 28B, n=6, standard deviation is shown as error bars).

MDA-MB-231 cells [19] = assay: cells; settings: Homo sapiens, MDA-MB-231, 72 h, read-out: cell viability LC50 of doxorubicin
[20] = test system: cardiomyocytes differentiated from induced pluripotent stem cells; assay: doxorubicin-induced apoptosis, TUNEL dye, 48 hours (Example 18); assay type: cell-based, human; settings: 1 μM doxorubicin, VIT 115 μM, Dex 160 μM, AMB 0.76 μM, NAC 50 μM, KAE 17 μM, MES 10 μM
Experimental: Following treatment, the samples were incubated with a TUNEL dye to indicate apoptosis-positive cells, and a second dye to identify cell nuclei.

[21] = test system: cardiomyocytes differentiated from induced pluripotent stem cells; assay: acute toxicity on electrophysiology, MEA beat period and field potential duration (Example 23); assay type: cell-based; settings: lower drug concentration, at least 20 minutes
Experimental: Samples were either mock-treated with 0.1% DMSO, or treated with increasing concentrations of the indicated drug for at least 20 minutes. Cardiomyocytes were treated with the hERG potassium channel blocker E4031 as a control. Following treatment, the beat period and field potential duration (FPD) were measured in each sample using the MEA.

[22] = iPSC-CM, read-out: iPSC-CM protection EC50
[23] = MYR 40 mg/kg i.p. 30 minutes prior to doxorubicin 20 mg/kg, day 5
[24] = MYR 40 mg/kg i.p., 2-fold higher than doxorubicin
[25] = Doxorubicin 20 mg/kg single intraperitoneal injection, day 5 vs baseline

O=c1c(O)c(-c2cc(O)c(O)c(O)c2)oc2cc(O)cc(O)c12 [Compound 1, 3,5,7,3′,4′,5′-hexahydroxyflavone]
TMRM signal (mitochondrial health) [1]: greater TMRM signal
beat rate ([2]; 79 μM myricetin alone): 39.33 beats per minute
beat rate ([2]; co-treated with 79 μM myricetin and 1.25 μM doxorubicin): 37.33 beats per minute
IC50 [3]: 20.5 µM
EC50 [4]: 7.5 µM
correction of DOX-induced contractile dysfunction ([5]; DOX (0.5 μM) plus MYR (100 μM), as compared to DEX (100 μM)): significantly corrected
protection against DOX-induced double strand break (γH2AX-positive cells) ([6]; DOX (0.5 μM) plus 100 μM agent): significant protection
IC50 ([6]; Homo sapiens, Cardiomyocyte, read-out: IC50, concentration at which DOX-induced double strand break was reduced to 50%, 0.5 μM of doxorubicin): 5.28 µM
protection against DOX-induced sarcomere disruption [7]: significant protection
TOPOII expression (TOPOIIβ) in the presence of myricetin (TOPOIIβ mRNA expression; DOX plus myricetin): restored to a level close to normal
TOPOIIβ mRNA expression (TOPOIIβ mRNA expression): did not have any effect
expression of TOPOIIα (TOPOIIα expression; myricetin in the presence of DOX): further repressed
EC50 ([8]; Cardiomyocyte, approximate, read-out: EC50 for cardioprotection): 10 to 20 µM
EC50 [8, 22]: 14.5 µM
Emax ([8]; iPSC-CM): 78%
protection against sunitinib-induced cell death [9]: displayed protection
cardiac dysfunction corrected [10]: more than 80%
rescue of bortezomib-induced cardiotoxicity (cardiomyocytes [11]): rescued
improvement of EF (C57BL/16 mice; [23]): 10%
improvement of FS (C57BL/16 mice; [23]): 7%
rescue of EF dysfunction caused by doxorubicin (C57BL/16 mice; [24]): 49%
rescue of FS dysfunction caused by doxorubicin (C57BL/16 mice; [24]): 52%
difference in the number of total cells, as compared to mock-treated control [12]: no significant difference
reduction the number of total cells, as compared to mock-treated control ([12]; co-treated with myricetin and 1.25 μM doxorubicin, 72 hours): 27.57%

O=c1c(O)c(-c2ccc(O)cc2)oc2cc(O)cc(O)c12 [Compound 7, 3,5,7,4′-tetrahydroxyflavone]
TOPIIα Inhibition (TOPOIIα): −
TOPOIIα inhibition, in words (TOPOIIα; decatenation assay): did not exhibit any inhibitory effect
TOPIIβ Inhibition (TOPOIIβ): −
TOPOIIβ inhibition, in words (TOPOIIβ; decatenation assay): did not exhibit any inhibitory effect
maximum rescue rate [8]: < 50%
EC50 [8, 22]: 26 µM
Emax ([8]; iPSC-CM): 46%
cardioprotection, in words ([8]; Table 1): moderate level of cardioprotection
decrease in mitochondrial toxicity, compared to doxorubicin without protective agent [13]: at least 60%
difference in the percentage of cell death vs doxorubicin without protective agent (A549 cells): no significant difference
decrease in the number of active electrodes relative to the mock-treated sample [14]: no observable decrease
difference in the percentage of cell death vs doxorubicin without protective agent (MDA-MB-231 cells [15]): no significant difference
Toxicity (cardiomyocytes [16]; * = cytotoxicity at 100 μM): −
toxic effects at concentrations less than 100 μM (cardiomyocytes [16]; Table 1): did not show toxic effects
cytotoxicity, in words (cardiomyocytes [16]; at 100 μM where stated, Table 1): without some level of cytotoxicity

COc1cccc2c1C(=O)c1c(O)c3c(c(O)c1C2=O)C[C@@](O)(C(=O)CO)C[C@@H]3O[C@H]1C[C@H](N)[C@H](O)[C@H](C)O1 [doxorubicin, reference compound]
contraction ([2]; 1.25 μM doxorubicin, in the absence of myricetin): completely inhibited contraction
dysfunction in cardiomyocyte contraction ([5]; DOX (0.5 μM)): reduction in beating, duration, and peak height
TOPOIIβ mRNA expression (TOPOIIβ mRNA expression): significantly repressed
expression of TOPOIIα (TOPOIIα expression; DOX alone, over time): slowly repressed
decrease of ejection fraction (EF) (C57BL/16 mice; [25]): 19%
decrease of fractional shortening (FS) (C57BL/16 mice; [25]): 15%
mitochondrial toxicity (decrease in TMRM-positive cells) vs mock-treated ([17]; 1 μM of doxorubicin): increase in mitochondrial toxicity
average number of active electrodes ([18]; 1 μM doxorubicin in the absence of vitexin): about 2 active electrodes
decrease in the number of active electrodes ([18]; 1 μM doxorubicin, in the absence of vitexin, 24 hours after drug treatment): ~50%
decrease in the number of active electrodes, relative to time zero ([18]; 1 μM doxorubicin, in the absence of vitexin, 30 hours after drug treatment): ~95%
reduction in the number of total cells, as compared to mock-treated control ([12]; human, 72 h, 1.25 μM): 62.6%
CC50 (MDA-MB-231 cells [19]): 0.53 µM

O=c1cc(-c2ccc(O)cc2)oc2c([C@@H]3O[C@H](CO)[C@@H](O)[C@H](O)[C@H]3O)c(O)cc(O)c12 [vitexin]
decrease in apoptosis, compared to doxorubicin without protective agent [20]: at least 60%
long term mitochondrial protection ([17]; doxorubicin and vitexin, compared to doxorubicin or doxorubicin and dexrazoxane): improved long term mitochondrial protection
decrease in the number of active electrodes ([18]; 1 μM doxorubicin and 11.6 μM vitexin, 24 hours): ~50%
decrease in the number of active electrodes ([18]; 1 μM doxorubicin and 37 μM vitexin, 24 hours): ~25%
decrease in the number of active electrodes ([18]; 1 μM doxorubicin and 116 μM vitexin, 24 hours): ~0%
average number of active electrodes ([18]; 1 μM doxorubicin and 116 μM vitexin): about 10 active electrodes
difference in the percentage of cell death vs doxorubicin without protective agent (A549 cells): no significant difference
difference in beat period or field potential duration vs control samples [21]: no appreciable difference
decrease in the number of active electrodes relative to the mock-treated sample [14]: no observable decrease
difference in the percentage of cell death vs doxorubicin without protective agent (MDA-MB-231 cells [15]): no significant difference
